# Where two headings read alike, the source gives them in different places.
# Legend:
# GPP130 [1] = molecular target: T1, GPP130 (Homo sapiens, UniProt O00461); format: cell-based
# T1 sequence (O00461 1-696): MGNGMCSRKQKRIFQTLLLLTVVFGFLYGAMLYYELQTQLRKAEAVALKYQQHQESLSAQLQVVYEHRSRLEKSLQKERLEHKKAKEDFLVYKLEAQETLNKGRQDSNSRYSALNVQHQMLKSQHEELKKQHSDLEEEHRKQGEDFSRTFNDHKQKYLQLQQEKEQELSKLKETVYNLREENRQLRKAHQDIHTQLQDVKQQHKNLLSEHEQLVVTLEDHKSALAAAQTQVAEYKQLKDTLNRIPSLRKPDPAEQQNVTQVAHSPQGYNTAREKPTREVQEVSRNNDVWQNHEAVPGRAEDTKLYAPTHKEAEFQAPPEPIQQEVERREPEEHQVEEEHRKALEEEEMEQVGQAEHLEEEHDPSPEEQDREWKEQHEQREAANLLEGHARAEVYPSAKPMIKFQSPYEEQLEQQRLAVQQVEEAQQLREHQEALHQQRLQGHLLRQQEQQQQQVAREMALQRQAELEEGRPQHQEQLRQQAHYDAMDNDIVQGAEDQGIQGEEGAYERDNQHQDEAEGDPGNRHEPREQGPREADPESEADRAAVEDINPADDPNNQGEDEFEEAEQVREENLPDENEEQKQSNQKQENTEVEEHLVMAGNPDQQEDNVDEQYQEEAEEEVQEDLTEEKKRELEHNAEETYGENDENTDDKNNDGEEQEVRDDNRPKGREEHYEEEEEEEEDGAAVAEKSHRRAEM
# HeLa cells [2] = format: cell-based
# HeLa cells [3] = format: cell-based; remark: listed apart in the source
# [4] = test system: vesicular stomatitis virus G protein; format: cell-based
# HeLa cells [5] = format: cell-based; remark: listed apart in the source
# GPP130 [6] = molecular target: T1, GPP130; format: cell-based; remark: listed apart in the source
# HeLa cells [7] = format: cell-based; remark: listed apart in the source
# mice [8] = conditions: mouse, in vivo
# HeLa cells [9] = test system: HeLa cells
# HeLa cells [10] = test system: HeLa cells; remark: listed apart in the source
# mice [11] = conditions: mouse, in vivo, ip
# mice [12] = conditions: mouse, in vivo, ip, 100 mg/kg
# [13] = in vivo; cited from earlier work
compound,measurement,setting,value
"[Cl][Mn][Cl] [Mn, MnCl2]",GPP130 in cells after Mn,GPP130 [1],lacked GPP130
same,STxB reaching the ER (STxB-KDEL),GPP130 [1],STxB did not reach the ER
same,STxB trafficking from the cell surface to the Golgi,GPP130 [1],STxB accumulated in peripheral punctate structures resembling endosomes
same,cholera toxin B-subunit (CTxB) trafficking,HeLa cells [2],no difference between Mn-treated and control cells
same,epidermal growth factor (EGF) internalization and degradation,HeLa cells [3],did not affect
same,ER-to-cell surface trafficking of vesicular stomatitis virus G protein,[4],did not affect
same,"localization or trafficking of GP73, TGN46 and Lamp2",HeLa cells [5],did not alter
same,sorting of STxB into endosomal tubules,GPP130 [6],abolished
same,cellular STxB level (toxin degradation),HeLa cells [7],dramatic loss of STxB
same,time at which STxB is degraded in Mn-treated cells,HeLa cells [7],1 to 2 h
same,STx1-induced renal damage (kidney histology),mice [8],no STx1-induced renal damage
same,complete protection against lethal STx1 evident,mice [8],not
same,health and survival after lethal STx1,mice [8],all Mn-treated animals remained healthy and survived
same,protection against lethal STx1,mice [8],Complete protection
same,cell viability (MTT),HeLa cells [9],did not affect cell viability
same,"STx1 concentration, relative to the LD50, at which 50% cell death was not evident",HeLa cells [10],> 2000 fold
same,estimated protection factor,HeLa cells [10],3800
same,protection against STx-induced cell death,HeLa cells [10],3800 fold
same,viability with Mn by itself,HeLa cells [10],did not compromise viability
same,apparent LD50,mice [11],125 mg/kg
same,paralysis and lethality,mice [11]; 100 mg/kg,Paralysis and lethality were not seen at any time
same,paralysis and lethality,mice [11]; 150 mg/kg,got paralyzed within a few hours and were then euthanized
same,paralysis and lethality,mice [11]; 250 mg/kg,got paralyzed within minutes and died
same,paralysis and lethality,mice [11]; 500 mg/kg,got paralyzed within minutes and died
same,"body weight, locomotor activity and demeanor",mice [12],"significantly lost weight, exhibited a depressed, lethargic attitude accompanied with diminished locomotor activity"
same,clearance from the system,[13],cleared from the system within hours
